Measurements taken from the SangsterLogP compilation.

Assay: method code SF, from PMID: 5081587

Structure (SMILES) | logP
CN(C)/N=N/c1nc[nH]c1C(N)=O | -0.24
O=NN(CCF)C(=O)NC1CCSCC1 | 1.43
O=NN(CCCl)C(=O)NC1CCCC1 | 2.19
O=NN(CCCl)C(=O)NC1CSCSC1 | 2.08
O=P1(N(CCCl)CCCl)NCCCO1 (stereo not drawn) | 0.63
O=NN(CCF)C(=O)NC1CSCSC1 | 1.54
O=NN(CCCl)C(=O)NCCCl | 1.53
O=NN(CCCl)C(=O)NC1CCC(=O)NC1=O (stereo not drawn) | 0.37
O=NN(CCCl)C(=O)NC1C=CCCC1 (stereo not drawn) | 2.45
O=NN(CCCl)C(=O)NC1CCSCC1 | 2.07
O=NN(CCCl)C(=O)NC1CCCCC1Cl (stereo not drawn) | 2.73
O=NN(CCCl)C(=O)NC1CC2CCC1C2 (stereo not drawn) | 2.98
O=NN(CCCl)C(=O)NC1CCS(=O)(=O)CC1 | 0.19
